Measured values as given in patent US20120015907A1, “Furopyridine compounds and uses thereof” (NOVARTIS AG, priority 2010, published 2012).
pIC50: −log10 of the molar value.

Biological target: T1, HCV polymerase (Hepatitis C virus genotype 1b, UniProt Q9WMX2)
T1 construct: (His)6 (C)
Assay: biochemical
Details: polymerase assay of Biological Example 1; read-out: NS5B polymerase IC50

| Compound | pIC50 |
| --- | --- |
| CCOC(=O)C1(CCCN(c2nc3oc(-c4ccc(C)cc4)c(C(=O)NC)c3cc2C2CC2)S(C)(=O)=O)CCNCC1 [Example 29.999993, ethyl 4-(3-(N-(5-cyclopropyl-3-(methylcarbamoyl)-2-p-tolylfuro[2,3-b]pyridin-6-yl)methylsulfonamido)propyl) piperidine-4-carboxylate] | 7.66 |
| CNC(=O)c1c(-c2ccc(C)cc2)oc2nc(N(CCCC(CC(=O)O)OC)S(C)(=O)=O)c(C3CC3)cc12 (stereo not drawn) [Example 29.999994, 6-(N-(5-cyclopropyl-3-(methylcarbamoyl)-2-p-tolylfuro[2,3-b]pyridin-6-yl)methylsulfonamido)-3-methoxyhexanoic acid] | 8.52 |
| CNC(=O)c1c(-c2ccc(C)cc2)oc2nc(N(CCCC(C#N)CC(=O)O)S(C)(=O)=O)c(C3CC3)cc12 (stereo not drawn) [Example 29.999995, 3-cyano-6-(N-(5-cyclopropyl-3-(methylcarbamoyl)-2-p-tolylfuro[2,3-b]pyridin-6-yl)methylsulfonamido) hexanoic acid] | 8.52 |
| CNC(=O)c1c(-c2ccc(C)cc2)oc2nc(N(CCCC(CC(=O)O)OCCOC)S(C)(=O)=O)c(C3CC3)cc12 (stereo not drawn) [Example 29.999996, 6-(N-(5-cyclopropyl-3-(methylcarbamoyl)-2-p-tolylfuro[2,3-b]pyridin-6-yl)methylsulfonamido)-3-(2-methoxyethoxy) hexanoic acid] | 7.92 |
| CNC(=O)c1c(-c2ccc(C)cc2)oc2nc(N(CCCCC(=O)O)S(C)(=O)=O)c(CCO)cc12 [Example 29.999997, 5-(N-(5-(2-hydroxyethyl)-3-(methylcarbamoyl)-2-p-tolylfuro[2,3-b]pyridin-6-yl)methylsulfonamido) pentanoic acid] | 7.32 |
| CNC(=O)c1c(-c2ccc(C)c(C)c2)oc2nc(N(CCCCC(=O)O)S(C)(=O)=O)c(C3CC3)cc12 [Example 29.999998, 5-(N-(5-cyclopropyl-2-(3,4-dimethylphenyl)-3-(methylcarbamoyl)furo[2,3-b]pyridin-6-yl)methylsulfonamido) pentanoic acid] | 8.40 |
| CNC(=O)c1c(-c2ccc(C)c(F)c2)oc2nc(N(CCCCC(=O)O)S(C)(=O)=O)c(C3CC3)cc12 [Example 29.999999, 5-(N-(5-cyclopropyl-2-(3-fluoro-4-methylphenyl)-3-(methylcarbamoyl)furo[2,3-b]pyridin-6-yl)methylsulfonamido) pentanoic acid] | 8.70 |
| CNC(=O)c1c(-c2ccc(F)cc2)oc2nc3c(cc12)C(C)(O)CCCN3S(C)(=O)=O (stereo not drawn) [Example 32, 2-(4-Fluoro-phenyl)-5-hydroxy-9-methanesulfonyl-5-methyl-6,7,8,9-tetrahydro-5H-1-oxa-9,10-diaza-cyclohepta[f]indene-3-carboxylic acid methylamide] | 6.19 |
| C=C[C@@H](CN(c1nc2oc(-c3ccc(F)cc3)c(C(=O)NC)c2cc1C(=C)C)S(C)(=O)=O)OCc1ccccc1 [Example 35, (S)-6-(N-(2-(benzyloxy)but-3-enyl)methylsulfonamido)-2-(4-fluorophenyl)-N-methyl-5-(prop-1-en-2-yl)furo[2,3-b]pyridine-3-carboxamide] | 5.22 |
| C=C1OCCN(S(C)(=O)=O)c2nc3oc(-c4ccc(F)cc4)c(C(=O)NC)c3cc21 [Example 36.1, 2-(4-Fluoro-phenyl)-9-methanesulfonyl-5-methylene-5,7,8,9-tetrahydro-1,6-dioxa-9,10-diaza-cyclohepta[f]indene-3-carboxylic acid methylamide] | 7.34 |
| CNC(=O)c1c(-c2ccc(F)cc2)oc2nc3c(cc12)CCCCN(S(C)(=O)=O)CCCN3S(C)(=O)=O [Example 36.5, 2-(4-Fluoro-phenyl)-9,13-bis-methanesulfonyl-6,7,8,9,10,11,12,13-octahydro-5H-1-oxa-9,13,14-triaza-cycloundeca[f]indene-3-carboxylic acid methylamide] | 6.32 |
| CNC(=O)c1c(-c2ccc(F)cc2)oc2nc3c(cc12)C(C)CCN3S(C)(=O)=O (stereo not drawn) [Example 36.6, 2-(4-fluorophenyl)-N,5-dimethyl-8-(methylsulfonyl)-5,6,7,8-tetrahydrofuro[2,3-b][1,8]naphthyridine-3-carboxamide] | 6.64 |
| CNC(=O)c1c(-c2ccc(F)cc2)oc2nc3c(cc12)C(C)CCCCCN3S(C)(=O)=O (stereo not drawn) [Example 37, 2-(4-Fluoro-phenyl)-11-methanesulfonyl-5-methyl-6,7,8,9,10,11-hexahydro-5H-1-oxa-11,12-diaza-cyclonona[f]indene-3-carboxylic acid methylamide] | 7.32 |
| CNC(=O)c1c(-c2ccc(F)cc2)oc2nc3c(cc12)C(C)C(O)CCCCN3S(C)(=O)=O (stereo not drawn) [Example 38, 2-(4-Fluoro-phenyl)-6-hydroxy-11-methanesulfonyl-5-methyl-6,7,8,9,10,11-hexahydro-5H-1-oxa-11,12-diaza-cyclonona[f]indene-3-carboxylic acid methylamide] | 6.29 |
| CNC(=O)c1c(-c2ccc(F)cc2)oc2nc3c(cc12)CCCCN3S(C)(=O)=O [Example 39, 2-(4-Fluoro-phenyl)-9-methanesulfonyl-6,7,8,9-tetrahydro-5H-1-oxa-9,10-diaza-cyclohepta[f]indene-3-carboxylic acid methylamide] | 6.79 |
| CNC(=O)c1c(-c2ccc(C)cc2)oc2nc(N(CCOCC(C)(C)C(=O)O)S(C)(=O)=O)c(C3CC3)cc12 [Example 41, 3-(2-(N-(5-cyclopropyl-3-(methylcarbamoyl)-2-p-tolylfuro[2,3-b]pyridin-6-yl)methylsulfonamido)ethoxy)-2,2-dimethylpropanoic acid] | 8.52 |
| CCc1ccc(-c2oc3nc(N(CCCC(C)(CCOC)C(=O)O)S(C)(=O)=O)c(C4CC4)cc3c2C(=O)NC)cc1 (stereo not drawn) [Example 42, 5-(N-(5-Cyclopropyl-2-(4-ethylphenyl)-3-(methylcarbamoyl)furo[2,3-b]pyridin-6-yl)methylsulfonamido)-2-(2-methoxyethyl)-2-methylpentanoic acid] | 8.70 |
| CCc1ccc(-c2oc3nc(N(CCCC(C)(COC)C(=O)O)S(C)(=O)=O)c(C4CC4)cc3c2C(=O)NC)cc1 (stereo not drawn) [Example 43, 5-(N-(5-Cyclopropyl-2-(4-ethylphenyl)-3-(methylcarbamoyl)furo[2,3-b]pyridin-6-yl)methylsulfonamido)-2-(methoxymethyl)-2-methylpentanoic acid] | 8.70 |
| CNC(=O)c1c(-c2ccc(C)cc2)oc2nc(N(CCC(CC(=O)O)N(C)C)S(C)(=O)=O)c(C3CC3)cc12 (stereo not drawn) [Example 44, 5-[(5-Cyclopropyl-3-methylcarbamoyl-2-p-tolyl-furo[2,3-b]pyridin-6-yl)-methanesulfonyl-amino]-3-dimethylamino-pentanoic acid] | 7.70 |
| CNC(=O)c1c(-c2ccc(C)cc2)oc2nc(N(CCc3ccccc3C(=O)O)S(C)(=O)=O)c(C3CC3)cc12 [Example 45, 2-(2-(N-(5-cyclopropyl-3-(methylcarbamoyl)-2-(p-tolyl)furo[2,3-b]pyridin-6-yl)methylsulfonamido)ethyl)benzoic acid] | 8.10 |
| CNC(=O)c1c(-c2ccc(C)cc2)oc2nc(N(CCCCC(C(=O)O)S(C)(=O)=O)S(C)(=O)=O)c(C3CC3)cc12 (stereo not drawn) [Example 46, 6-(N-(5-cyclopropyl-3-(methylcarbamoyl)-2-(p-tolyl)furo[2,3-b]pyridin-6-yl)methylsulfonamido)-2-(methylsulfonyl)hexanoic acid] | 8.52 |
| CNC(=O)c1c(-c2ccc(C)cc2)oc2nc(N(CCC[C@H](C)C(=O)O)S(C)(=O)=O)c(C3CC3)cc12 [Example 47, (S)-5-(N-(5-cyclopropyl-3-(methylcarbamoyl)-2-p-tolylfuro[2,3-b]pyridin-6-yl)methylsulfonamido)-2-methylpentanoic acid] | 8.70 |

The remaining lines, values ahead:

| pIC50 | Compound |
| --- | --- |
| 8.70 | CCc1ccc(-c2oc3nc(N(CCOCC(C)(C)C(=O)O)S(C)(=O)=O)c(C4CC4)cc3c2C(=O)NC)cc1 [Example 41.1, 3-(2-(N-(5-Cyclopropyl-2-(4-ethylphenyl)-3-(methylcarbamoyl)furo[2,3-b]pyridin-6-yl)methylsulfonamido)ethoxy)-2,2-dimethylpropanoic acid] |
| 8.52 | CNC(=O)c1c(-c2ccc(C)cc2)oc2nc(N(CCCC(C)(CCOC)C(=O)O)S(C)(=O)=O)c(C3CC3)cc12 (stereo not drawn) [Example 42.1, 5-(N-(5-cyclopropyl-3-(methylcarbamoyl)-2-p-tolylfuro[2,3-b]pyridin-6-yl)methylsulfonamido)-2-(2-methoxyethyl)-2-methylpentanoic acid] |
| 8.70 | CNC(=O)c1c(-c2ccc(C)cc2)oc2nc(N(CCCC(C)(COC)C(=O)O)S(C)(=O)=O)c(C3CC3)cc12 (stereo not drawn) [Example 43.1, 5-(N-(5-cyclopropyl-3-(methylcarbamoyl)-2-p-tolylfuro[2,3-b]pyridin-6-yl)methylsulfonamido)-2-(methoxymethyl)-2-methylpentanoic acid] |
| 8.30 | CCOC(=O)/C=C/CCCN(c1nc2oc(-c3ccc(C)cc3)c(C(=O)NC)c2cc1C1CC1)S(C)(=O)=O [Example 44.1, (E)-ethyl 6-(N-(5-cyclopropyl-3-(methylcarbamoyl)-2-p-tolylfuro[2,3-b]pyridin-6-yl)methylsulfonamido)hex-2-enoate] |
| 8.52 | CNC(=O)c1c(-c2ccc(C)cc2)oc2nc(N(CCCC/C(C(=O)O)=C(\C)O)S(C)(=O)=O)c(C3CC3)cc12 [Example 46.1, (Z)-6-(N-(5-cyclopropyl-3-(methylcarbamoyl)-2-(p-tolyl)furo[2,3-b]pyridin-6-yl)methylsulfonamido)-2-(1-hydroxyethylidene)hexanoic acid] |
| 6.18 | CNC(=O)c1c(-c2ccc(C)cc2)oc2nc(N(CCC[C@@H](C)C(=O)N[C@@H](CO)Cc3ccccc3)S(C)(=O)=O)c(C3CC3)cc12 [Example 47.1] |
| 7.24 | CNC(=O)c1c(-c2ccc(C)cc2)oc2nc(N(CCC[C@H](C)C(=O)N[C@@H](CO)Cc3ccccc3)S(C)(=O)=O)c(C3CC3)cc12 [Example 47.2] |
| 8.52 | CNC(=O)c1c(-c2ccc(C)cc2)oc2nc(N(CCC[C@@H](C)C(=O)O)S(C)(=O)=O)c(C3CC3)cc12 [Example 47.3, (R)-5-(N-(5-cyclopropyl-3-(methylcarbamoyl)-2-p-tolylfuro[2,3-b]pyridin-6-yl)methylsulfonamido)-2-methylpentanoic acid] |
